Test results as given in patent US20090162277A1, “Lysophospholipids Solubilized Single-Walled Carbon Nanotubes” (Clemson University, priority 2005, published 2009).
Like-named read-outs stand apart in the source and are kept apart here.

What was measured:
[1] = Solubility assay of SWNTs dispersed in PBS with phospholipids (optical density of supernatant); assay type: physicochemical
Source text: Pristine SWNTs were synthesized using arc-deposition method. The average diameter of the SWNTs was approximately 1.4 nm measured by Raman spectroscopy and the average molecular weight of the SWNTs was 1×10^6 Dalton (Da) estimated from TEM. To measure the solubility provided by pure phospholipids, SWNTs were dispersed in phosphate buffered saline (PBS, pH=7.4) containing phospholipids of varying amounts. […] The weight ratio of solubilized SWNTs to LPC was approximately 1:10 corresponding to a molar ratio of 1:20,000 at saturation (FIG. 2b), indicating the high binding capacity of SWNTs.
Solubility Assays. Glycerol phospholipids and lysoglycerophopholipids were purchased from Avanti Polar Lipids, Inc, AL. Cell growth mediums NB and RPMI fortified with 10% FBS were obtained from Difco and Gibco (Invitrogen), respectively. SWNTs of 1 mg were placed in a series of eppendorf tubes containing lysophospholipids LPC 18:0, PC 24:0, PG 36:2, and PE 32:0 of 10, 40, 100, 400 μg and 1, 4, 10, 40 mg in 1 mL PBS solution. The eppendorf tubes were placed in a water bath and sonicated for 1 hr at room temperature. The solution was centrifuged for 3 min at 6,177 g. Approximately 0.3 mL of the supernatant was transferred into a glass cuvette and read for optical density against a blank at 360 nm. Size Exclusion Chromatography. Sepharose CL-4B beads (Sigma) having an exclusion limit molecular weight of 20×10^6 Da were used for gel filtration chromatography in a 10 mm (diameter)×150 mm (length) open column. The flow rate was produced by gravity at approximately 0.5 mL/min. Samples in 1×PBS of 40 μL were loaded onto the column with 1 M acetic acid as the mobile phase. Molecular weight markers with visible colours were used for calibration. The dark colour of the lysophospholipid dispersed SWNTs was monitored visually by comparing the elution volume with those of standard compounds. SWNT-LPC complexes were centrifuged at 16,060 g and SWNT-LPA complexes centrifuged at 6,177 g for 3 min. Their supernatants were used for size exclusion chromatography. TEM Experiment. Buffered solutions of SWNT-LPC and SWNT-LPG were sonicated for 1 min. The solutions were placed on holey carbon grids for 1 min and the excess drawn off with filter paper. The grid was negatively stained with a 2% uranyl acetate solution for 1 min. The images were recorded at magnification ranges from 400,000 to 600,000 times with the Hitach 7600 transmission electron microscope at 100 and 120 kV. Bioassay. Free lysophospholipids and micelles in SWNT-lysophospholipid solution were removed by filtration through 100 kDa Microcon (Amicon, Inc) centrifugation tubes and washed 4 times. The resulting lysophospholipid-free and micelle-free SWNT-LPC complexes were tested by […] bioassay using colon cancer (CACO-2) and macrophage (THP-1) cell lines. Each cell line was incubated in its own 8-well chamber slide (LabTek) for 48 hr at 37° C. in a CO2 incubator. Prior to treatment, cell adhesion was checked by differential interference contrast (DIC) microscopy using a Zeiss 135 Axiovert inverted microscope. Treatments ranging from 5 to 40 ppm of lysophospholipid-free and micelle-free SWNT-LPC complexes were added to each adherent cell line and incubated for 3 hr at 37° C. in a CO2 incubator. After incubation, control and treated cells were fixed with 4% paraformaldehyde for 30 min, washed in PBS and subjected to an APO-BrdU TUNEL assay (Invitrogen). This assay detects the onset of apoptosis by fluorescent detection of nuclear DNA fragments or DNA breaks. Cells were labeled with deoxythymidine analog 5-bromo-2′-deoxyuridine 5′ triphosphate (BrdUTP) followed by the addition of Alexa-Fluor 488 labeled anti-BrdU antibody. Propidium iodide was used to image the total DNA content of cells. The prepared cells were imaged using a Zeiss 510 LSM confocal fluorescence microscope.

MCF7 cells = assay: Rd-LPE translocation across cell membranes (rhodamine fluorescence imaging); assay type: cell-based; settings: incubation 0.5 to 3.0 hours
Experimental: The SWNT lipid assemblies described above may be used to form an “optical switch” using rhodamine-lysophosphoethanolamine (Rd-LPE) and SWNTs. […] The construct of a Rd-LPE molecule and a coupled SWNT functions as a fluorescence resonance energy transfer (FRET) pair. […] FIG. 7A sets forth a control image without SWNTs. Rd-LPE was incubated with MCF7 cells for three hours. […] Images 7C through 7F show increased translocation of Rd-LPE across the MCF7 cells with respective incubation times of 0.5, 1.0, 2.0, and 3.0 hours. […] Further, the fluorescence is indicative that a physical separation between the SWNT and the Rd-LPE has occurred since the quenching effect was not observed.

## CCCCCCCCCCCCCC(=O)OC[C@H](COP(=O)([O-])OCC[N+](C)(C)C)OC(=O)CCCCCCCCCCCCC [PC 24:0, dimyristoyl phosphatidyl choline, reference compound]
[1]
  solubility of SWNTs provided by the phospholipid: None of the above phospholipids provided good solubility

## CCCCCCCCCCCCCCCC(=O)OCC(COP(=O)(O)OCCN)OC(=O)CCCCCCCCCCCCCCC (stereo not shown) [PE 32:0, 1,2-dipalmityolphosphatidylethanolamine, reference compound]
[1]
  solubility of SWNTs provided by the phospholipid: None of the above phospholipids provided good solubility

## CCCCCCCC/C=C\CCCCCCCC(=O)OCC(COP(=O)(O)OCC(O)CO)OC(=O)CCCCCCC/C=C\CCCCCCCC (stereo not shown) [PG 36:2, 1,2-dioleoylphosphatidylglycerol, reference compound]
[1]
  solubility of SWNTs provided by the phospholipid: None of the above phospholipids provided good solubility

## lysophosphatidic acid [LPA 16:0]
[1]
  solubility of SWNTs provided by the phospholipid: Comparable solubility

## lysophosphatidylcholine [LPC 18:0]
[1]; 6,177 g RCF at tip
  effectiveness in dispersing SWNTs in PBS relative to SDS, on per molecule basis: approximately 2.5 times
[1]; 16,060 g RCF at tip
  effectiveness in dispersing SWNTs relative to SDS: one order of magnitude more effective than SDS
[1]; SWNTs in PBS pH=7.4, sonication 1 hr at room temperature
  solubility of SWNTs provided by the phospholipid: completely solubilized

## lysophosphatidylglycerol [LPG 18:0]
[1]
  solubility of SWNTs compared with SDS: slightly better than SDS
  solubility of SWNTs provided by the phospholipid: Comparable solubility

## rhodamine-lysophosphoethanolamine [Rd-LPE]
MCF7 cells
  translocation across the cell membrane (intracellular rhodamine fluorescence): minimal Rd-LPE translocation
